For one compound, IC50 results are on record in patent US7910621B2, “Small molecule antagonists of XIAP family proteins” (The Regents of the University of Michigan, priority 2004, dated 2011).

In this test the test system is Jurkat-Vec cells. Description: Cell growth assay, Jurkat-Vec. The format is cell-based. As to conditions: read-out: IC50 cell growth inhibition. The protocol:
FIG. 9 presents inhibition of cell growth by embelin in Jurkat-Vec and Jurkat-XIAP cells. The cell growth results are expressed as the percent of control and calculated from the percent of absorbance of treated wells versus that of vehicle control.
Human prostate cancer cell lines (PC-3, LNCap, CL-1, DU-145), and normal human fibroblast cell line WI-38 were obtained from the American Type Culture Collection (ATCC), were grown and maintained in Dulbecco's modified Eagle's medium (DMEM) containing 10% FBS (Invitrogen Corporation). Normal human prostate epithelial cells (PrEC) were obtained from Clonetics (Cambrex Inc., MD) and maintained in the special medium provided by the company. Jurkat T-cells stably transfected with either empty vector (Jurkat-Vec), or XIAP (Jurkat-XIAP) and were cultured in RPMI 1640 containing 10% fetal calf serum and 1 ug/ml puromycin. Cell cultures were maintained in a humidified incubator at 37° C. and 5% CO2.
Cell growth was determined by the MTT-based assay using Cell Proliferation Reagent WST-1 (Roche) according to the manufacturer's instruction. […] Absorbance was measured with a plate reader at […] with correction at […]. The results are expressed as the percent of absorbance of treated wells versus that of vehicle control.

`CCCCCCCCCCCC1=C(O)C(=O)C=C(O)C1=O` [embelin]: the IC50 was found to be 20 µM.
